Data: patent publication US12410211B2, “V1A receptor partial agonist and method of use” (PharmaIN Corporation, priority 2020, dated 2025)
Where two headings read alike, the source gives them in different places. Marks after values point to notes of the source that are not given here.

Tests used:
[1] = Therapeutic index (NOAEL/NOEL): paleness, lethargy, ataxia observation in Sprague-Dawley rats (Example 7); assay type: in vivo; conditions: for Highest dose with no-observed effect level or paleness (NOEL) / NOAEL/NOEL (therapeutic index) / NOAEL / Marked adverse effect (Lowest dose first showed Ataxia) / Mild adverse effect (Lowest dose first showed Lethargy) / Ataxia (duration, hrs; SD) / Lethargy (duration, hrs; SD) / NOAEL at 24 h: rat; for NOAEL / NOAEL at 24 h: read-out: Highest dose with no-observed adverse effect level without lethargy (NOAEL); for NOAEL at 24 h: male, Sprague-Dawley
Description: As used herein, the term “therapeutic index” (TI; also referred to as therapeutic ratio) is a quantitative measure of the relative safety of a drug. […] For the purpose of the present application, lethargy is a lack of energy and/or sleepiness which is visually observed in rats as a lack of mobility, such as a lack of mobility even in the presence of human activity. For the purpose of present specification, peripheral vasoconstriction is visually observed by a paleness of the extremities (e.g., skin of hands, feet, ears, and lips). In rats, peripheral vasoconstriction is determined by a side-by-side comparison of ear paleness in treated subjects (e.g., Sprague Dawley rats, a white rat with easily visualizable changes in redness/paleness) vs. untreated control subjects. The V1a agonist (or partial agonist) with a high therapeutic index will have a better safety profile than that with a low therapeutic index by providing a wider margin of safety for dosing during the treatment of the disease. This NOAEL/NOEL ratio, being a quantitative measure of the relative safety, is a comparison of the amount of a therapeutic agent that causes the therapeutic effect (useful effect, vasoconstriction for the purpose of the present specification) to the amount that causes toxicity. A V1a agonist that causes severe vasoconstriction will affect not only the peripheral vessels, with several layer of smooth muscles, but also other vessels present in other organs (e.g., heart, lungs, kidney, brain) and this will result in observed lethargy and eventually ataxia. A partial agonist is less likely to reach such an extreme level of vasoconstriction and is believed to have a higher therapeutic index.
In this study, 8 to 10 weeks male Sprague-Dawley rats (Charles River; Wilmington, MA) under isoflurane anesthesia (n=3 or 6) were intravenously (IV) or subcutaneously (SC) injected or administered with various test articles. Prior to administration of test articles, the injection area was clipped free of fur, to allow for clear visualization of the dose site, and animal weight was measured and recorded. Animals were housed two per cage. […] Lethargy is when the animal eyes cannot fully open and is associated deep breathing and limited of movement even in the presence of human.

V1a receptor = target: T1, V1a receptor (Homo sapiens, UniProt P37288); test: V1a Human Vasopressin GPCR Cell Based Agonist Calcium Flux Assay; conditions: for Emax: read-out: V1a Highest agonist effect (% of AVP)
T1 construct: host or cells: CHO cells
Experimental: Peptides of Formula (I) include Mpa-Tyr-Phe-Hgn-Asn-Cys-Pro-Lys(X)a-Gly-NH2 [SEQ ID NO. 24]; where (X)a is a peptide with “a” residues and each residue X is independently selected from Gly, and a D- or L-amino acid version of Ala, Lys, Orn, Glu, and Asp, where “a” is 0-10. V1a Human Vasopressin GPCR Cell Based Agonist Calcium Flux Assay were conducted at Eurofins Cerep SA (France) on a fee for service basis. Human recombinant CHO cells expressing human V1 receptors were distributed in microplates. Intracellular calcium signal was detected by fluorimetry, and the signal was acquired before and after addition of a known agonist concentration. The following agonist concentrations were tested (nM); 0.0128, 0.064, 0.32, 1.6, 8, 40, 200, and 1,000. […] All assays were performed in duplicate. Changes in fluorescence intensity reflected changes in the concentration of free cytosolic calcium. […] The half-maximal effective concentration (EC50) was determined by a non-linear regression analysis of the concentration-response curves generated with mean replicate values using Hill equation curve fitting (Cerep, I'Evescault, France).
V1a Human Vasopressin GPCR Cell Based Agonist Calcium Flux Assay were conducted using human recombinant CHO cells expressing human V1 receptor. Briefly, human recombinant CHO cells expressing human V1 receptor were distributed in microplates at 4.5×10^4 cells/well. The fluorescent probe (Fluo4 Direct, Invitrogen) mixed with probenicid in HBSS buffer (Invitrogen) complemented with 20 mM HEPES (Invitrogen) (pH 7.4) is then added into each well and equilibrated with the cells for 60 min at 37° C. then 15 min at 22° C. Thereafter, the assay plates are positioned in a microplate reader (CellLux, PerkinElmer) which is used for the addition of the test compound, reference agonist or HBSS buffer (basal control), and the measurements of changes in fluorescence intensity which varies proportionally to the free cytosolic Ca^2+ ion concentration. The following agonist concentrations were tested (nM), 0.0128, 0.064, 0.32, 1.6, 8, 40, 200, and 1,000. […] All assays were performed in duplicate. Changes in fluorescence intensity reflected changes in the concentration of free cytosolic calcium. […] Referring to FIG. 3 and Table 4, the half-maximal effective concentration (EC50) was determined by non-linear regression analysis of the concentration-response curves generated with mean replicate values using Hill equation curve fitting (Cerep, I'Evescault, France).

[2] = Table 3, cells printed in μM, read-out: Estimated V1a EC50, n = 2
[3] = S.C., at the Marked adverse effect dose
[4] = S.C., at the Mild adverse effect dose
[5] = FIG. 2 / FIG. 3 legend, n=2, read-out: EC50 for V1a receptor

T1 sequence (P37288 whole entry): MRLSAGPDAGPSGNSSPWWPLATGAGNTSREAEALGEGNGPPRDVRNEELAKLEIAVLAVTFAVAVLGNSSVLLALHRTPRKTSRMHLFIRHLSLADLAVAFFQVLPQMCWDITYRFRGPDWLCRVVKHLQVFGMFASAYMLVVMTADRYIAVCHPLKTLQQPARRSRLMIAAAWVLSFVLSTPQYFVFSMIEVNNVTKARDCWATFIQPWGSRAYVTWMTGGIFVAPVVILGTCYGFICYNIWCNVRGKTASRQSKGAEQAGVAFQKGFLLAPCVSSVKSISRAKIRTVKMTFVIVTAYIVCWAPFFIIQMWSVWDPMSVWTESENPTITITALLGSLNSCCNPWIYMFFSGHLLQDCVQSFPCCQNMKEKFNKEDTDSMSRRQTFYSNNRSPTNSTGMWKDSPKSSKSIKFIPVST

Row | Compound | Highest dose with no-observed effect level or paleness (NOEL) ([1]; S.C.) [mg/kg] | NOAEL/NOEL (therapeutic index) ([1]; S.C.) | NOAEL ([1]; in vivo, sc, S.C.) [mg/kg] | Marked adverse effect (Lowest dose first showed Ataxia) ([1]; in vivo, sc) [mg/kg] | Mild adverse effect (Lowest dose first showed Lethargy) ([1]; in vivo, sc) [mg/kg] | EC50 (V1a receptor; [2]) [µM] | Emax (V1a receptor; Table 3, n = 2) [%] | Marked adverse effect (Lowest dose first showed Ataxia) ([1]; S.C.) [mg/kg] | Mild adverse effect (Lowest dose first showed Lethargy) ([1]; S.C.) [mg/kg] | Ataxia (duration, hrs; SD) ([1]; in vivo, sc) | Lethargy (duration, hrs; SD) ([1]; in vivo, sc) | Paleness (Duration, hrs; SD) [1, 3] | Paleness (Duration, hrs; SD) [1, 4] | Paleness (Duration, hrs; SD) ([1]; S.C., at the NOAEL dose) | Paleness (Duration, hrs; SD) ([1]; S.C., at the NOEL dose) | NOAEL at 24 h ([1]; in vivo, sc, S.C.) [mg/kg] | EC50 (V1a receptor; [5]) [µM] | Emax (V1a receptor; Table 4, n = 2) [%] | bioactivity duration compared with terlipressin ([1]; remark in NOAEL/NOEL column) [x longer] | V1a Highest agonist effect (% of AVP); n = 2 (V1a receptor; Table 3)
1 | NCCCC[C@@H](NC(=O)[C@@H]1CCCN1C(=O)[C@@H]1CSSCCC(=O)N[C@@H](Cc2ccc(O)cc2)C(=O)N[C@@H](Cc2ccccc2)C(=O)N[C@@H](CCCC(N)=O)C(=O)N[C@@H](CC(N)=O)C(=O)N1)C(=O)NCC(N)=O [SEQ ID NO. 18, Mpa-Tyr-Phe-Hgn-Asn-Cys-Pro-dLys-Gly-NH2] | 0.005 | 30 | 0.15 | 1.5 | 0.5 | > 10 | 0.2 | – | – | – | – | – | – | – | – | – | – | – | – | –
2 | NCCCCCCCCCCCC(=O)NCCCC[C@H](NC(=O)[C@@H]1CCCN1C(=O)[C@@H]1CSSCCC(=O)N[C@@H](Cc2ccc(O)cc2)C(=O)N[C@@H](Cc2ccccc2)C(=O)N[C@@H](CCCC(N)=O)C(=O)N[C@@H](CC(N)=O)C(=O)N1)C(=O)NCC(N)=O [SEQ ID NO. 19, Mpa-Tyr-Phe-Hgn-Asn-Cys-Pro-Lys(12-aminododecanoic acid)-Gly-NH2] | 0.014 | 649 (Dose too | 9.08 | – | – | > 10 | 2.5 | >9.08 | >9.08 | None Observed | None Observed | – | – | – | – | – | – | – | – | –
3 | NCC(=O)NCC(=O)NCC(=O)NCC(=O)NCC(=O)NCC(=O)NCCCC[C@H](NC(=O)[C@@H]1CCCN1C(=O)[C@@H]1CSSCCC(=O)N[C@@H](Cc2ccc(O)cc2)C(=O)N[C@@H](Cc2ccccc2)C(=O)N[C@@H](CCC(N)=O)C(=O)N[C@@H](CC(N)=O)C(=O)N1)C(=O)NCC(N)=O [SEQ ID NO. 20, Mpa-Tyr-Phe-Gln-Asn-Cys-Pro-Lys(X)a-Gly-NH2; (X)a = (Gly)6] | 0.0015 | 100 | – | 5.0 | 0.5 | – | – | – | – | – | – | (>6.76)* hrs | (>5.46)* hrs | (6.11 ± 0.09) hrs | None observed | 0.15 | 0.0273 | 60.9 | – | –
4 | NCC(=O)NCC(=O)NCC(=O)NCC(=O)NCC(=O)NCC(=O)NCC(=O)NCC(=O)NCC(=O)NCCCC[C@H](NC(=O)[C@@H]1CCCN1C(=O)[C@@H]1CSSCCC(=O)N[C@@H](Cc2ccc(O)cc2)C(=O)N[C@@H](Cc2ccccc2)C(=O)N[C@@H](CCC(N)=O)C(=O)N[C@@H](CC(N)=O)C(=O)N1)C(=O)NCC(N)=O [SEQ ID NO. 23, Mpa-Tyr-Phe-Gln-Asn-Cys-Pro-Lys(X)a-Gly-NH2; (X)a = (Gly)9] | 0.0015 | 333 | – | 5.0 | 1.5 | – | – | – | – | – | – | (>6.46)* hrs | (6.23 ± 0.05) hrs | (>5.09)* hrs | None observed | 0.5 | 0.0126 | 55.9 | – | –
5 | NCCCC[C@H](NC(=O)[C@@H]1CCCN1C(=O)[C@@H]1CSSCCC(=O)N[C@@H](Cc2ccc(O)cc2)C(=O)N[C@@H](Cc2ccccc2)C(=O)N[C@@H](CCCC(N)=O)C(=O)N[C@@H](CC(N)=O)C(=O)N1)C(=O)NCC(N)=O [SEQ ID NO. 25, Mpa-Tyr-Phe-Hgn-Asn-Cys-Pro-Lys-Gly-NH2] | 0.0015 | 10 | – | 0.15 | 0.05 | – | 42.8 | – | – | – | – | (4.9 ± 0.05) hrs | (5.66 ± 0.83) hrs | (3.78 ± 0.05) hrs | None observed | 0.015 | – | – | 3 | –
6 | CCCCCCCCCCCC(=O)NCCCC[C@H](NC(=O)[C@@H]1CCCN1C(=O)[C@@H]1CSSCCC(=O)N[C@@H](Cc2ccc(O)cc2)C(=O)N[C@@H](Cc2ccccc2)C(=O)N[C@@H](CCCC(N)=O)C(=O)N[C@@H](CC(N)=O)C(=O)N1)C(=O)NCC(N)=O [SEQ ID NO. 27, Mpa-Tyr-Phe-Hgn-Asn-Cys-Pro-Lys(X)a-Gly-NH2; (X)a = Lauric acid] | 0.1 | 90 (dose too | 9 | >9 | >9 | > 10 | – | – | – | None Observed | None Observed | – | – | – | – | – | – | – | – | inactive
7 | CC(=O)NCCCC[C@H](NC(=O)[C@@H]1CCCN1C(=O)[C@@H]1CSSCCC(=O)N[C@@H](Cc2ccc(O)cc2)C(=O)N[C@@H](Cc2ccccc2)C(=O)N[C@@H](CCCC(N)=O)C(=O)N[C@@H](CC(N)=O)C(=O)N1)C(=O)NCC(N)=O [SEQ ID NO. 28, Mpa-Tyr-Phe-Hgn-Asn-Cys-Pro-Lys(X)a-Gly-NH2; (X)a = Ac] | 0.1 | 3 | 0.33 | 3 | 1 | > 10 | 30 | – | – | – | – | – | – | – | – | – | – | – | – | –
